Laboratory results taken from PubChem BioAssay (NCI).
Several values for one entry are separate records, joined by “and”; a condition that tells them apart may be missing. Equal values may be shown once.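 Grown in 96-well plates, cells were treated for 48 hours with each compound at five concentrations. Insufficient inhibition: endpoint recorded as highest concentration tested. GI50 marks 50% less growth. TGI: total growth inhibition.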

What follows are compounds tested on MDA-MB-468 breast (assay: NCI tumour cell line growth inhibition, 48 h).

For `O=c1c(O)cccn1CCCN(CCCn1cccc(O)c1=O)CCn1cccc(O)c1=O`, which GI50 is on record?
The GI50 was 8330 nM.

And the TGI?
Its TGI is 45600 nM.

For `C=C1CC[C@@H]2[C@](C)(COC(C)=O)[C@H](OC(C)=O)CC[C@@]2(C)[C@@H]1CC(Nc1ccc(S(=O)(=O)Nc2nccs2)cc1)C1=CCOC1=O` (stereo partly specified), which GI50 is on record?
Its GI50 is 1830 nM.

And the TGI?
Its TGI is 4430 nM.

For `COc1ccc2c(c1)/C(=C\c1c[nH]c3ccc(OC)cc13)C(=O)N2`, which GI50 is on record?
Its GI50 is 1780 nM.

And the TGI?
The TGI was 5660 nM.

How did the GI50 turn out when `CN(c1ccc(C#N)c(Cl)c1)C1CCC(NC(=O)c2ccc(N3CCN(C4CN(c5ccc6c(c5)C(=O)N(C5CCC(=O)NC5=O)C6=O)C4)CC3)cc2)CC1` (stereo unspecified) was run?
The GI50 was 13700 nM.

What about the TGI of the same compound?
The TGI was 60000 nM.

Which GI50 does the source give for `C=C1C(=O)O[C@H]2[C@H]1CC/C(CNC(=O)/C=C/c1ccccc1)=C\CC[C@@]1(C)O[C@@H]21` here?
Its GI50 is 480 nM.

What about the TGI of the same compound?
Its TGI is 1690 nM.

What does the source list for `CCN(CC)CCCC(C)Nc1c(-c2ccccc2)cnc2cc(Cl)ccc12` (stereo unspecified)?
GI50: 2630 nM; TGI: 7950 nM

`CCN(CC)CCC(CNc1c(C)cnc2cc(Cl)ccc12)c1ccc(Cl)cc1` (stereo unspecified) was tested. Which GI50 did it give?
The GI50 was 2050 nM.

What about the TGI of the same compound?
Its TGI is 5450 nM.

Which GI50 does the source give for `CCN(CC)C(=S)SSC(=S)N(CC)CC` here?
The GI50 was 15800 nM and 16800 nM.

What about the TGI of the same compound?
The TGI was 43700 nM and 44800 nM.

`Cc1c2ccncc2c(C)c2c1c1cc(CO)ccc1n2C` was tested. Which GI50 did it give?
Its GI50 is 105 nM.

And the TGI?
The TGI was 327 nM.

How did the GI50 turn out when `COc1ccc(C2C(C#N)=C(/N=C/c3ccc(Cl)cc3)Oc3c2sc2c(C)cccc32)cc1` (stereo unspecified) was run?
Its GI50 is 1090 nM.

And the TGI?
Its TGI is 9340 nM.

Which GI50 does the source give for `NNc1c2ccccc2nc2ccccc12` here?
The GI50 was 470 nM.

And the TGI?
Its TGI is 13000 nM.

Which results are given for `N/C(=N\c1nc2ccccc2s1)NC(=NC1CCCCC1)NC1CCCCC1`?
GI50: 1700 nM; TGI: 3410 nM

How did the GI50 turn out when `Brc1cccc(-c2cc(-c3ccc4nccnc4c3)[nH]n2)c1` was run?
The GI50 was 900 nM.

What does the source list for `Nc1ncccc1-c1nc2ccc(-c3ccccc3)nc2n1-c1ccc(C2(N)CCC2)cc1`?
GI50: 117 nM; TGI: 1990 nM

What does the source list for `Cc1oc2c(c1C(=O)N1CC[C@@H](N)C1)C(=O)c1c(c(O)c3ccccc3c1O)C2=O`?
GI50: 2520 nM; TGI: 11900 nM

What does the source list for `NS(=O)(=O)c1cccc(-c2ccc3c(NC(=O)C4CC4)n[nH]c3c2)c1`?
GI50: 5250 nM; TGI: > 25000 nM

With `C[C@H]1c2ccccc2CN1CCCOc1cc2c(cc1OCC1CC1)C1(CCCC1)C(N)=N2` as the compound, how does the GI50 read?
Its GI50 is 813 nM.

What about the TGI of the same compound?
Its TGI is 1830 nM.

How did the GI50 turn out when `NC(=O)c1cccc(-c2cc(C(N)=O)ccc2Cl)c1` was run?
Its GI50 is 4610 nM.

What about the TGI of the same compound?
Its TGI is greater than 100000 nM.

How did the GI50 turn out when `Cc1ccc(NC(=O)Nc2nc3ccc([N+](=O)[O-])cc3s2)cc1` was run?
The GI50 was 1710 nM.

What about the TGI of the same compound?
Its TGI is 5800 nM.

`O=C1CSC(c2ccccc2O)N1c1nnc(Cn2ccnc2)o1` (stereo unspecified) was tested. Which GI50 did it give?
Its GI50 is 3110 nM.

What about the TGI of the same compound?
Its TGI is 13200 nM.

`COc1cc(C2CC(=O)Nc3c2cc(Br)c2ccccc32)cc(Br)c1OC` (stereo unspecified) was tested. Which GI50 did it give?
The GI50 was 529 nM.

What about the TGI of the same compound?
Its TGI is 2540 nM.

Which GI50 does the source give for `COc1cc(OC)cc(-c2n/c(=C\c3c(O)[nH]c4ccc(Cl)cc34)cc3c2=Nc2ccccc2-3)c1` here?
The GI50 was 17900 nM.

And the TGI?
Its TGI is 45600 nM.

Which GI50 does the source give for `C=CCn1c(=O)c2cnc(Nc3ccc(N4CCN(C)CC4)cc3)nc2n1-c1cccc(C(C)(C)O)n1` here?
The GI50 was 144 nM and 317 nM.

And the TGI?
Its TGI is 801 nM and 2080 nM.

Which GI50 does the source give for `COc1cc(/C=C/[N+](=O)[O-])cc(OC)c1OC` here?
Its GI50 is 1320 nM.

And the TGI?
The TGI was 2870 nM.

Which results are given for `Cc1cccc2c(Nc3ccc(NS(C)(=O)=O)cc3)c3ccc([N+](=O)[O-])cc3nc12`?
GI50: 202 nM; TGI: 882 nM

With `Cn1c2c(c3ccccc31)CCN1C(=O)C3SC21C1C(=O)N(c2ccccc2)C(=O)C31` (stereo unspecified) as the compound, how does the GI50 read?
The GI50 was 51600 nM.

What about the TGI of the same compound?
Its TGI is greater than 100000 nM.

Which results are given for `Oc1c(Cl)cc(Cl)c2cccnc12`?
GI50: 2100 nM; TGI: 5530 nM

`CCN1C(=O)N(CC)C2C1NN=c1s/c(=C\c3ccc[nH]3)c(=O)n12` (stereo unspecified) was tested. Which GI50 did it give?
Its GI50 is 265 nM.

What about the TGI of the same compound?
Its TGI is greater than 100000 nM.

What does the source list for `CC/C=C\C/C=C/C=C1/C(=O)C=C[C@@H]1C/C=C\CCCC(=O)OC`?
GI50: 1790 nM; TGI: 3830 nM

`O=[N+]([O-])c1ccc2c(Nc3ccccc3-c3ccccc3Nc3c4ccccc4nc4cc([N+](=O)[O-])ccc34)c3ccccc3nc2c1` was tested. Which GI50 did it give?
Its GI50 is 2250 nM.

What about the TGI of the same compound?
The TGI was 8600 nM.

`COc1cccc(C2C(C#N)=C(N)Oc3c2ccc2ccccc32)c1` (stereo unspecified) was tested. Which GI50 did it give?
Its GI50 is 19.4 nM.

And the TGI?
The TGI was 7040 nM.

How did the GI50 turn out when `CC(=O)O.CC(=O)O.CC(=O)O.CC(=O)O.[Rh].[Rh]` was run?
Its GI50 is 15000 nM.

What about the TGI of the same compound?
Its TGI is 58100 nM.

For `CCOC(=O)C1=C(C)N2C(=NC3=C(CCC/C3=C\c3ccc(Cl)cc3)C2c2ccc(Cl)cc2)S1` (stereo unspecified), which GI50 is on record?
The GI50 was 2360 nM.

And the TGI?
Its TGI is 6190 nM.

With `Cn1nnc2c(C(N)=O)ncn2c1=O` as the compound, how does the GI50 read?
Its GI50 is greater than 100000 nM.

What about the TGI of the same compound?
The TGI was greater than 100000 nM.

Which results are given for `C[C@@H]1COCCN1c1cc(-c2ccnn2C)c2ccnc(-c3ccn[nH]3)c2n1`?
GI50: 164 nM and 324 nM; TGI: 854 nM and 3080 nM

How did the GI50 turn out when `O=C1/C(=C/c2cccc(Br)c2)COc2ccc(O)c(O)c21` was run?
Its GI50 is 1600 nM.

And the TGI?
Its TGI is 3800 nM.

How did the GI50 turn out when `OCc1ccc(N2CCCC2)cc1Cl` was run?
The GI50 was 75.7 nM.

What about the TGI of the same compound?
The TGI was 324 nM.

How did the GI50 turn out when `COc1cccc(CC(C)=C(c2ccc(OCCCN(C)C)cc2)c2ccc(OCCCN(C)C)cc2)c1` was run?
The GI50 was 518 nM.

What about the TGI of the same compound?
Its TGI is 1180 nM.

What does the source list for `CCN(C(=O)CN1CCN(c2cc3c(cc2F)c(=O)c(C(=O)O)cn3CC)CC1)c1nc(-c2ccccc2)cs1`?
GI50: 307 nM; TGI: 896 nM

For `COc1ccc(Oc2ccccc2NC(=O)CNC(=O)c2cccc3ccccc23)cc1`, which GI50 is on record?
The GI50 was 454 nM.

And the TGI?
Its TGI is greater than 25000 nM.

Which results are given for `O=C(Nc1cnc(C(F)(F)F)cn1)c1cc(Cl)ccc1O`?
GI50: 282 nM; TGI: 819 nM

`Nc1n[nH]c2ccc([C@@H]3Nc4cc5[nH]ncc5cc4[C@H]4C5CCC(C5)[C@@H]34)cc12` (stereo partly specified) was tested. Which GI50 did it give?
Its GI50 is 211 nM.

And the TGI?
Its TGI is 873 nM.

How did the GI50 turn out when `Cc1cc(NC(=O)c2cnc(N3CCN(CCOCCOCCOCCOCCC(=O)N[C@H](C(=O)N4C[C@H](O)C[C@H]4C(=O)N[C@@H](C)c4ccc(-c5scnc5C)cc4)C(C)(C)C)CC3)cn2)c2ncccc2c1` was run?
The GI50 was 1670 nM.

What about the TGI of the same compound?
The TGI was 3390 nM.

`Cc1ccc(Sc2oc(-c3ccc(C)cc3)nc2[P+](c2ccccc2)(c2ccccc2)c2ccccc2)cc1` was tested. Which GI50 did it give?
Its GI50 is 227 nM.

And the TGI?
Its TGI is 705 nM.

Which GI50 does the source give for `COC1=CC(=O)c2c(O)c3c(c(O)c2C1=O)C[C@](C)(O)C[C@@H]3O` here?
The GI50 was 2160 nM.

What about the TGI of the same compound?
Its TGI is 7130 nM.

Which GI50 does the source give for `O=C1CCC(N2C(=O)c3cccc(NCCCC4CCN(CCNC(=O)c5cc6c(o5)C(=O)c5ccccc5C6=O)CC4)c3C2=O)C(=O)N1` (stereo unspecified) here?
The GI50 was 265 nM.

What about the TGI of the same compound?
The TGI was 1940 nM.
